Data reported in patent US9695219B2, “Polypeptide having antibacterial activity and angiogenesis-inducing activity and wound-healing drug containing said polypeptide” (priority 2009, dated 2017).
Where a SMILES comes first, the peptide text is derived from it. [ ]: non-standard residue; d: D form.

Tests used:
[1] = test system: Fusarium solani; format: cell-based; details: 37° C. for 20 hours; tested twice, first/second value where not matched
Protocol: (§1) Further, with respect to not only the above-described strains but also various other strains, the “minimum inhibitory concentration (MIC)” was measured as follows. MIC is the lowest concentration of an agent that may inhibit the growth of a bacterium. MIC is used as a parameter for the efficacy of an antibacterial agent, for the strength of bacterial sensitivity, or the like. The bacteria can grow (proliferate) when the concentration is not higher than MIC, and cannot grow when the concentration is higher than MIC. Its measurement is carried out according to a method defined as a standard method by Japanese Society of Chemotherapy or CLINICAL AND LABORATORY […] (CLSI), but, in this Example, its measurement was carried out by a broth microdilution method in accordance with “M100-S17/M7-A7” (Performance Standards for Antimicrobial Susceptibility Testing; Seventeenth Informational Supplement, Vol. 27 No. 1) published by CLSI on January, 2007. That is, sensitivity test of agents was carried out using a microtiter plate or test tubes.
(§2) The bacteria were cultured in liquid media for 4 to 6 hours, and thereafter absorbances at A600 were measured. Bacterial suspensions were diluted with Mueller-Hinton broth (MHB) according to McFarland #0.5. Each strain was added so as to attain about 10^5 CFU/ml (final concentration). Each peptide was prepared to an optional concentration, and the solutions were serially diluted from the concentration. The polypeptide at each concentration stage was added to a microplate or test tubes, and the bacterial suspension was added thereto. Chloramphenicol, amphotericin B, ciprofloxacin, meropenem (MEPM), ciprofloxacin (CPFX), tobramycin (TOB) and oxacillin (OX) were used as positive controls. The plate was incubated at 37° C. for 20 hours, and the lowest concentration where bacterial growth was inhibited was regarded as the minimum inhibitory concentration.

[2] = test system: Trichophyton rubrum; format: cell-based; details: 37° C. for 20 hours; tested twice, first/second value where not matched
Protocol: as §1, §2

[3] = test system: human vascular endothelial cells and fibroblast cells; assay: Lumen formation test, areas of formed lumina (Angiogenesis Kit KZ-1000); format: cell-based; details: 0.5, 2.5 and 10 μg/mL, Day 11 of culture
Protocol: Then, in order to examine the angiogenesis activity of these, lumen formation by the polypeptides was evaluated using an angiogenesis kit available from KURABO […] LTD. (Product No.: KZ-1000). Vascular endothelial growth factor (VEGF) as a positive control, and polypeptide-free, unstimulated group as a negative control, were used.
Using a special medium for angiogenesis which was attached to the kit, each polypeptide was prepared such that the concentration thereof was respectively 0.5, 2.5 and 10 μg/mL. To a 24-well plate in which cells were plated (the cells were those obtained by co-culturing human vascular endothelial cells and fibroblast cells at an optimum concentration) which was attached to the kit, the special medium for angiogenesis containing each polypeptide was added, and the cells were cultured at 37° C. under 5% CO2. The medium was replaced with a medium containing the same additive on Day 4, Day 7 and Day 9 of culture. […]
Each of the obtained images was quantified using an angiogenesis quantification software. The areas of formed lumina observed in each visual field were measured on the basis of the scale of an angiogenesis quantification software available from KURABO […] […] (angiogenesis quantification software Ver 1.0), and evaluated on the basis of the ratio of the areas of polypeptide-containing groups relative to the area of the negative control group.

[4] = test system: Pseudomonas aeruginosa (clinical strain 12); assay: MIC measurement, broth microdilution; format: cell-based; details: 37° C. for 20 hours; tested twice, first/second value where not matched
[5] = Stability in human serum (HPLC); format: in vitro ADME; details: 37° C.
Protocol: The stability of the polypeptides in serum was evaluated. In human serum (purchased from KAC Co., Ltd.), or in rat serum obtained by collecting blood from a rat, then leaving the collected blood to stand at room temperature followed by centrifugation, each of the peptides was dissolved so as to attain a final concentration of 500 μg/mL, and the obtained solutions were left to stand at 37° C. After leaving to stand for 3 min or 10 min, these solutions were subjected to HPLC chromatogram analysis to detect peaks of the decomposition products, and calculate the ratio of the concentration of the peptides which remained in the solutions relative to the starting concentration. In addition, the half-lives of the peptides in serum were also calculated.

[6] = test system: Escherichia coli; assay: MIC measurement, broth microdilution; format: cell-based; details: 37° C. for 20 hours; tested twice, first/second value where not matched
Protocol: as §1, §2

[7] = test system: Staphylococcus epidermidis; assay: MIC measurement, broth microdilution; format: cell-based; details: 37° C. for 20 hours; tested twice, first/second value where not matched
Protocol: as §1, §2

[8] = test system: Bacteroides fragilis; assay: microbe, parasite or virus in culture; format: cell-based; details: 37° C. for 20 hours; tested twice, first/second value where not matched
In short: (§3)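 MIC was read as the lowest peptide concentration preventing visible growth after 20 h incubation at 37° C. Serial peptide dilutions in microplates or tubes received about 10^5 CFU/ml of organism in Mueller-Hinton broth, following CLSI M100-S17/M7-A7.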

[9] = test system: Clostridium ramosum; assay: microbe, parasite or virus in culture; format: cell-based; details: 37° C. for 20 hours; tested twice, first/second value where not matched
In short: as §3

[10] = test system: Salmonella typhimurium; assay: microbe, parasite or virus in culture; format: cell-based; details: 37° C. for 20 hours; tested twice, first/second value where not matched
In short: as §3

SMILES: CC[C@H](C)[C@H](NC(=O)[C@H](CC(C)C)NC(=O)[C@H](CCCCN)NC(=O)[C@@H](N)CC(C)C)C(=O)N[C@@H](Cc1ccccc1)C(=O)N[C@@H](CC(C)C)C(=O)N[C@@H](Cc1c[nH]cn1)C(=O)N[C@@H](CCCNC(=N)N)C(=O)N[C@@H](CC(C)C)C(=O)N[C@@H](CCCCN)C(=O)N[C@@H](CCCNC(=N)N)C(=O)N[C@@H](CCSC)C(=O)N[C@@H](CCCNC(=N)N)C(=O)N[C@@H](CCCCN)C(=O)N[C@@H](CCCNC(=N)N)C(=O)N[C@@H](CC(C)C)C(=O)N[C@H](CCCCN)C(=O)N[C@@H](CCCNC(=N)N)C(=O)N[C@@H](CCCCN)C(N)=O [SR-08] (H-LKLIFLHRLKRMRKRL[dK]RK-NH2; N-terminus assumed)
- MIC, Fusarium solani [1]: 4/8
- MIC, Trichophyton rubrum [2]: 128/64
- Ability to form lumen (areas of formed lumina relative to negative control, FIG. 1) [3]: showed an ability to form lumen at the tested concentrations
- MIC, Pseudomonas aeruginosa (clinical strain 12) [4]: 16/32
- Ratio of peptide remaining relative to the starting concentration, human serum, 0 min ([5]; 500 μg/mL, 0 min): 100
- remaining at 0.05 h, 500 μg/mL ([5]; human, human serum, 3 min, read-out: Ratio of peptide remaining relative to the starting concentration, human serum, 3 min): 95%
- remaining at 10 min, 500 μg/mL ([5]; human, human serum, 10 min, read-out: Ratio of peptide remaining relative to the starting concentration, human serum, 10 min): 65.8%
- half-life ([5]; human, serum, 500 μg/mL): 16 min
- MIC, Escherichia coli [6]: 32/64
- MIC, Staphylococcus epidermidis [7]: 8> μg/mL
- MIC, Bacteroides fragilis [8]: 64/128
- MIC, Clostridium ramosum [9]: 32/16
- MIC, Salmonella typhimurium [10]: 8/4
